Measurements taken from patent publication US20250186584A1, “METHODS OF TREATING BILIARY TRACT CANCER USING ANTI-PD-L1 ANTIBODY IN COMBINATION WITH CHEMOTHERAPY” (ASTRAZENECA AB, priority 2022, published 2025).
Values joined by “and” are separate entries in the source; they are usually repeats but may differ in a detail not shown here. Equal values may be shown once. “Also recorded” adds a separate entry of the source.

How the values were obtained:
[1] = tested on: unresectable, locally advanced, or metastatic biliary tract cancer; assay: TOPAZ-1 phase 3 study: efficacy of durvalumab or placebo plus gemcitabine and cisplatin (OS, PFS, tumor response per RECIST v1.1); type: in vivo, human; settings: for Difference in overall survival: versus placebo plus gemcitabine and cisplatin; for Objective response rate: investigator assessment, RECIST v1.1, patients with measurable disease at baseline
Description: This is a randomized, double-blind, placebo controlled, multi-center, global, Phase III study which determined the efficacy and safety of first-line treatment with durvalumab in combination with gemcitabine/cisplatin versus placebo in combination with gemcitabine/cisplatin in patients with previously untreated, unresectable, locally advanced, or metastatic BTC.
Arm A: Durvalumab plus gemcitabine/cisplatin combination therapy. Durvalumab 1500 mg via intravenous (IV) infusion q3w, starting on Cycle 1 in combination with cisplatin 25 mg/m^2 and gemcitabine 1000 mg/m^2 (each administered on Days 1 and 8 q3w) up to 8 cycles, followed by durvalumab 1500 mg as monotherapy q4w until clinical progression or RECIST 1.1-defined radiological progressive disease (PD), unless there is unacceptable toxicity, withdrawal of consent, or another discontinuation criterion is met.
Arm B: Placebo plus gemcitabine/cisplatin therapy. Placebo via IV infusion q3w, starting on Cycle 1 in combination with cisplatin 25 mg/m^2 and gemcitabine 1000 mg/m^2 (each administered on Days 1 and 8 q3w) up to 8 cycles, followed by placebo monotherapy q4w until clinical progression or RECIST 1.1-defined radiological PD, unless there is unacceptable toxicity, withdrawal of consent, or another discontinuation criterion is met.
Adults aged ≥18 years with histologically confirmed unresectable, locally advanced, or metastatic adenocarcinoma of the biliary tract, including intrahepatic or extrahepatic cholangiocarcinoma and gallbladder carcinoma, were eligible for inclusion. Eligible patients included those with previously untreated disease that was unresectable or metastatic at initial diagnosis and those who developed recurrent disease >6 months after surgery with curative intent and >6 months after the completion of adjuvant therapy. Other inclusion criteria included an Eastern Cooperative Oncology Group (ECOG) performance status of 0 or 1, ≥1 measurable lesion per Response Evaluation Criteria in Solid Tumors (RECIST) v1.1, and no prior exposure to immune-meditated therapy. Patients were excluded if they had ampullary carcinoma, active or prior documented autoimmune or inflammatory disorders, or known allergy or hypersensitivity to any study treatment.
TOPAZ-1 was a phase 3, randomized, double-blind, placebo-controlled, global study. Patients were randomly assigned in a 1:1 ratio to receive durvalumab in combination with gemcitabine and cisplatin or placebo in combination with gemcitabine and cisplatin.
Baseline tumor assessments were performed using images acquired≤28 days before randomization. During the study period, tumor assessments were performed every 6 weeks (±1 week) for the first 24 weeks after randomization, and then every 8 weeks (±1 week) thereafter, until radiological disease progression, followed by ≥1 additional follow-up scan. Survival assessments were performed every 2 months following treatment discontinuation. Patients on treatment or in survival follow-up were contacted following the data cutoff for the interim analysis to provide complete survival data. Newly acquired tumor biopsy samples or archival samples taken≤3 years prior to screening were obtained by an image-guided core needle or by excision from all screened patients. Tissue samples were retrospectively evaluated for programmed cell death ligand 1 (PD-L1) expression by the Ventana PD-L1 (SP263) immunohistochemistry assay in all randomized patients using the tumor area positivity (TAP) score method. “TAP” is the proportion of tumor and/or immune cells with PD-L1 staining at any intensity and can be used interchangeably with “TIP.” A TAP score of ≥1% was defined as PD-L1 staining of any intensity in tumor cell membranes and/or tumor-associated immune cells covering ≥1% of the tumor area. A TAP score of <1% was defined as PD-L1 staining of any intensity in tumor cell membranes and/or tumor-associated immune cells covering <1% of tumor area. […]

[2] = target: PD-L1 (Homo sapiens, UniProt Q9NZQ7); settings: in vitro; cited from earlier work
PD-L1, sequence (Q9NZQ7 19-290): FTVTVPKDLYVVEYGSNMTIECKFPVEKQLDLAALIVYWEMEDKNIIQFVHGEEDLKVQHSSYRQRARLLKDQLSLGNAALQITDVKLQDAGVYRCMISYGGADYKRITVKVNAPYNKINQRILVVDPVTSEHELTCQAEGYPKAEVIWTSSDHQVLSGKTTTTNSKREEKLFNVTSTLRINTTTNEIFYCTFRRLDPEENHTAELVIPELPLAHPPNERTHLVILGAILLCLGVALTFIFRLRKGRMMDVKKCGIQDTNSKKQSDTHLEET

[3] = tested on: xenograft model; settings: via a T-cell dependent mechanism; cited from earlier work
[4] = patients with objective response

## Durvalumab plus Gemcitabine and Cisplatin: Durvalumab 1500 mg IV q3w with cisplatin 25 mg/m^2 and gemcitabine 1000 mg/m^2 up to 8 cycles, then durvalumab monotherapy q4w
[1]; at 12 months
  Difference in overall survival: 6%
[1]; at 18 months
  Difference in overall survival: 10%
[1]; at 24 months
  Difference in overall survival: 15%
[1]; full analysis set
  Median overall survival (95% CI): 12.8 months
[1]; listed as durvalumab+GemCis
  Objective response rate: 26.7%
[1]; [4]
  Median duration of response: 6.4 mo
  Median time to response: 1.6 mo
[1]; ≥3 months
  Percentage of patients with continued response: 88.9%
[1]; ≥6 months
  Percentage of patients with continued response: 59.3%
[1]; ≥9 months
  Percentage of patients with continued response: 32.6%
[1]; ≥12 months
  Percentage of patients with continued response: 26.1%
Adverse events of any causality
  Abdominal pain upper, Grade 3/4: 0 no.
immune-mediated adverse events
  Adrenal insufficiency, Grade 3 or 4: 0 no.
  Hyperthyroid events, Grade 3 or 4: 0 no.
  Hypophysitis, Grade 3 or 4: 0 no.
  Hypothyroid events, Grade 3 or 4: 0 no.
  Myositis, Any Grade: 0 no.
  Myositis, Grade 3 or 4: 0 no.
  Pancreatic events, Grade 3 or 4: 0 no.
  Renal events, Any Grade: 0 no.
  Renal events, Grade 3 or 4: 0 no.
  Thyroiditis, Grade 3 or 4: 0 no.

## durvalumab: antibody that selectively binds PD-L1 and blocks the binding of PD-L1 to PD-1 and CD80 receptors
[2]
  PD-L1-mediated suppression of human T-cell activation: can relieve PD-L1-mediated suppression of human T-cell activation
[3]
  Tumor growth in a xenograft model: inhibits tumor growth
[1]; FIG. 8
  Benefit of the addition of durvalumab to gemcitabine and cisplatin, subgroup analysis of overall survival: observed across all subgroups
[1]; TAP score, Ventana PD-L1 (SP263) assay
  Benefit of the addition of durvalumab to gemcitabine and cisplatin, overall survival by PD-L1 expression: observed across PD-L1 expression; also recorded: observed regardless of PD-L1 expression
[1]; after 6 months, durvalumab versus placebo
  Overall survival hazard ratio (95% CI): 0.74 (0.58-0.94)
[1]; at 12 months
  Estimated overall survival rate (95% CI): 54.1%
[1]; at 18 months
  Estimated overall survival rate (95% CI): 35.1%
[1]; at 24 months
  Estimated overall survival rate (95% CI): 24.9%
[1]; durvalumab versus placebo, each plus gemcitabine and cisplatin, 95% CI 0.66-0.97, P=0.021
  Overall survival hazard ratio: 0.80
[1]; durvalumab versus placebo, 95% CI 0.63-0.89, P=0.001
  Hazard ratio for progression-free survival: 0.75
[1]; durvalumab versus placebo, 95% CI 1.11-2.31
  Objective response rate odds ratio: 1.60
[1]; full analysis set
  Median (95% CI) progression-free survival: 7.2 months and 7.2 (6.7-7.4) months
  Median overall survival (95% CI): 12.8 (11.1-14.0) months
[1]
  Objective response rate: 26.7%
[1]; patients with PD-L1 TAP score of >1%, durvalumab versus placebo, 95% CI 0.61-1.00
  Hazard ratio for overall survival: 0.79
[1]; patients with TAP score <1%, durvalumab versus placebo, 95% CI 0.60-1.23
  Hazard ratio for overall survival: 0.86
[1]; up to 6 months, durvalumab versus placebo
  Overall survival hazard ratio (95% CI): 0.91 (0.66-1.26)
[1]; ≥9 months
  Percentage of patients with continued response: 32.6%
[1]; ≥12 months
  Percentage of patients with continued response: 26.1%
In vivo
  Additional toxicity to that observed with chemotherapy: did not add additional toxicity
  Anemia, Any Grade: 48.2%
  Any immune-mediated adverse event, Any Grade: 12.7%
  Any immune-mediated adverse event, Grade 3 or 4: 2.4%
  Constipation, Any Grade: 32.0%
  Events in the other rare/miscellaneous category of immune-mediated adverse events: immune-mediated arthritis
  Nausea, Any Grade: 40.2%
  Neutropenia, Any Grade: 31.7%
  Treatment-related adverse event leading to discontinuation of any study treatment: 8.9%
